PMC5216056 (Nature Communications, 2017)
Values joined by “and” are separate entries in the source; they are usually repeats but may differ in a detail not shown here. Equal values may be shown once. “Also recorded” adds a separate entry of the source.

Tests used:
D1 (h) = target: T1, D1 (h) (Homo sapiens, UniProt P21728); test: CEREP panel; type: binding; settings: 10 µM
T1 construct: CEREP (contract assay)

sst4 (h) = target: T2, sst4 (h) (Homo sapiens, UniProt P31391); test: CEREP panel; type: binding; settings: 10 µM
T2 construct: CEREP (contract assay)

C57BL6/J mice [1] = test: Triad assay: hypothermia; type: in vivo, mouse; settings: 1-100 mg kg^−1 i.p., cumulative, mice
NK3 (h) = target: T3, NK3 (h) (Homo sapiens, UniProt P29371); test: CEREP panel; type: binding; settings: read-out: % inhibition NK3 (h)
T3 construct: CEREP (contract assay)
T3 sequence (P29371 1-465): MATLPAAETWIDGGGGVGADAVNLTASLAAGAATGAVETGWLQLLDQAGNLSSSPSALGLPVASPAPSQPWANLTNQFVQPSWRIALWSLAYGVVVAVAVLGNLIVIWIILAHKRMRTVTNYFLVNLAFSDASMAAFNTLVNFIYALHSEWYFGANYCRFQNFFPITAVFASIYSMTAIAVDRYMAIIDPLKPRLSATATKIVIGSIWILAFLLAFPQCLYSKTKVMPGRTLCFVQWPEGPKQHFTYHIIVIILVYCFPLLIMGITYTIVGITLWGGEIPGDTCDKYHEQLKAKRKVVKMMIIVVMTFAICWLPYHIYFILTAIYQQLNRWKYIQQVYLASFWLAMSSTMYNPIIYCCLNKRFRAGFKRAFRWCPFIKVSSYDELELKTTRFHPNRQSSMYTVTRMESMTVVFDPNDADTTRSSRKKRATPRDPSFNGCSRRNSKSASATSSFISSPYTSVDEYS

C57BL6/J mice [2] = test: Triad assay: antinociception; type: in vivo, mouse; settings: 1-100 mg kg^−1 i.p., cumulative, mice
AT2 (h) = target: T4, AT2 (h) (Homo sapiens, UniProt P50052); test: CEREP panel; type: binding; settings: read-out: % inhibition AT2 (h)
T4 construct: CEREP
T4 sequence (P50052 1-363): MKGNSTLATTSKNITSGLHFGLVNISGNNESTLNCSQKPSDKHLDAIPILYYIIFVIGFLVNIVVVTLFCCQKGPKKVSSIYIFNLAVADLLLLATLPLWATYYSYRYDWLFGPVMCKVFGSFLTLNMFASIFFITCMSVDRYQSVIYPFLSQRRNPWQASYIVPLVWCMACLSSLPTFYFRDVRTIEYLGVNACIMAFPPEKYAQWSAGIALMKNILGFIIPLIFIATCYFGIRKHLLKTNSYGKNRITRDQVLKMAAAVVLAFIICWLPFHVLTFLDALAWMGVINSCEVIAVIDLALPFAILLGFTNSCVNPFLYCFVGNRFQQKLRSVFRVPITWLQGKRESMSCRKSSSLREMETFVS

A2A (h) = target: T5, A2A (h) (Homo sapiens, UniProt P29274); test: CEREP panel; type: binding; settings: read-out: % inhibition A2A (h)
T5 construct: CEREP

NOP (ORL1) (h) = target: T6, NOP (ORL1) (h) (Homo sapiens, UniProt P41146); test: CEREP panel; type: binding; settings: read-out: % inhibition NOP (ORL1) (h)
T6 construct: CEREP (contract assay)

NTS1 (NT1) (h) = target: T7, NTS1 (NT1) (h) (Homo sapiens, UniProt P30989); test: CEREP panel; type: binding; settings: read-out: % inhibition NTS1 (NT1) (h)
T7 construct: CEREP (contract assay)

NK1 (h) = target: T8, NK1 (h) (Homo sapiens, UniProt P25103); test: CEREP panel; type: binding; settings: read-out: % inhibition NK1 (h)
T8 construct: CEREP (contract assay)

BZD (peripheral) = target: T9, BZD (peripheral) (Rattus norvegicus, UniProt P16257); test: CEREP panel; type: binding; settings: read-out: % inhibition BZD (peripheral)
T9 construct: CEREP

BB = test: CEREP panel; type: binding; settings: 10 µM
physchem = settings: pH 6.5, aqueous buffer, thermodynamic from solid
B2 (h) = target: T10, B2 (h) (Homo sapiens, UniProt P30411); test: CEREP panel; type: binding; settings: read-out: % inhibition B2 (h)
T10 construct: CEREP
T10 sequence (P30411 1-391): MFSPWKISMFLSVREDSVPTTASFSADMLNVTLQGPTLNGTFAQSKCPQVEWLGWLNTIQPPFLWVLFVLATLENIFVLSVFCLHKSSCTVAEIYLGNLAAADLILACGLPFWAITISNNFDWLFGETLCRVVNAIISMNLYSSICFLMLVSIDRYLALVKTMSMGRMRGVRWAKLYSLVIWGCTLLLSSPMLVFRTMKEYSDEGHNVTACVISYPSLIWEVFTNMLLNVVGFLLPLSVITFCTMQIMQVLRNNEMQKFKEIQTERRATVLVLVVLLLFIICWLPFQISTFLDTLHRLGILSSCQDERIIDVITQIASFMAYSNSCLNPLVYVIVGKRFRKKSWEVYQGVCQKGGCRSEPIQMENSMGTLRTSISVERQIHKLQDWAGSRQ

[3] = tested on: Ca2+ channel (verapamil site); test: CEREP panel; type: binding; settings: 10 µM
MC4 (h) = target: T11, MC4 (h) (Homo sapiens, UniProt P32245); test: CEREP panel; type: binding; settings: read-out: % inhibition MC4 (h)
T11 construct: CEREP (contract assay)

mCB2R [4] = target: T12, mCB2R (Mus musculus, UniProt P47936); test: Operational analysis of biased signalling
beta 2 (h) = target: T13, beta 2 (h) (Homo sapiens, UniProt P07550); test: CEREP panel; type: binding; settings: read-out: % inhibition beta 2 (h)
T13 construct: CEREP

PDGF = test: CEREP panel; type: binding; settings: 10 µM
C57BL6/J mice [5] = test: Triad assay: catalepsy; type: in vivo, mouse; settings: 1-100 mg kg^−1 i.p., cumulative, mice
mCB2R [6] = target: T12, mCB2R; test: [35S]GTPγS assay; type: biochemical; parameters: from tissue; host or cells: spleen of male C57BL/6J mice
human P-gp = human P-gp (Homo sapiens, UniProt P08183); settings: efflux ratio
5-HT2A (h) = target: T14, 5-HT2A (h) (Homo sapiens, UniProt P28223); test: CEREP panel; type: binding; settings: 10 µM
T14 construct: CEREP (contract assay)

in vitro = settings: male, C57BL/6J, mouse, microsomes, pH 7.4

T12 sequence (P47936 whole entry): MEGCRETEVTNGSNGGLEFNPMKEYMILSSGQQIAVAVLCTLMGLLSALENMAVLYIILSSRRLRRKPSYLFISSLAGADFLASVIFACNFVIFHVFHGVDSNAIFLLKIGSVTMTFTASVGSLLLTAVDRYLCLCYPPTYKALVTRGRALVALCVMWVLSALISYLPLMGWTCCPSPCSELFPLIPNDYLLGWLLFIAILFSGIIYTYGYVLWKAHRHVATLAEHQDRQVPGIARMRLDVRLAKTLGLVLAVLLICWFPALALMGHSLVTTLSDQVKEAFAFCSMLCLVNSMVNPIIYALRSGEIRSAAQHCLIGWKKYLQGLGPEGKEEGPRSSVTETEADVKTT
T2 sequence (P31391 whole entry): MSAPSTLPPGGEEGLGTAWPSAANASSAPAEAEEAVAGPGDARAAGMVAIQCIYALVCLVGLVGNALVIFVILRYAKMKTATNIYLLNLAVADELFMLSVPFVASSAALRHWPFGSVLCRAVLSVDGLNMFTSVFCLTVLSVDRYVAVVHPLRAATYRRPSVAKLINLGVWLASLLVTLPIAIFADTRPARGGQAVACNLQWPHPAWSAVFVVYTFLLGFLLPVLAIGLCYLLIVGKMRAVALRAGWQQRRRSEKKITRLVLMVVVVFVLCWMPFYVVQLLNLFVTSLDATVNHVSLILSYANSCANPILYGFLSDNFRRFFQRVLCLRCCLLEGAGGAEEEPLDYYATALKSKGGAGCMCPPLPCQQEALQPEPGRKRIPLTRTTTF
Chain of human P-gp (P08183 whole entry): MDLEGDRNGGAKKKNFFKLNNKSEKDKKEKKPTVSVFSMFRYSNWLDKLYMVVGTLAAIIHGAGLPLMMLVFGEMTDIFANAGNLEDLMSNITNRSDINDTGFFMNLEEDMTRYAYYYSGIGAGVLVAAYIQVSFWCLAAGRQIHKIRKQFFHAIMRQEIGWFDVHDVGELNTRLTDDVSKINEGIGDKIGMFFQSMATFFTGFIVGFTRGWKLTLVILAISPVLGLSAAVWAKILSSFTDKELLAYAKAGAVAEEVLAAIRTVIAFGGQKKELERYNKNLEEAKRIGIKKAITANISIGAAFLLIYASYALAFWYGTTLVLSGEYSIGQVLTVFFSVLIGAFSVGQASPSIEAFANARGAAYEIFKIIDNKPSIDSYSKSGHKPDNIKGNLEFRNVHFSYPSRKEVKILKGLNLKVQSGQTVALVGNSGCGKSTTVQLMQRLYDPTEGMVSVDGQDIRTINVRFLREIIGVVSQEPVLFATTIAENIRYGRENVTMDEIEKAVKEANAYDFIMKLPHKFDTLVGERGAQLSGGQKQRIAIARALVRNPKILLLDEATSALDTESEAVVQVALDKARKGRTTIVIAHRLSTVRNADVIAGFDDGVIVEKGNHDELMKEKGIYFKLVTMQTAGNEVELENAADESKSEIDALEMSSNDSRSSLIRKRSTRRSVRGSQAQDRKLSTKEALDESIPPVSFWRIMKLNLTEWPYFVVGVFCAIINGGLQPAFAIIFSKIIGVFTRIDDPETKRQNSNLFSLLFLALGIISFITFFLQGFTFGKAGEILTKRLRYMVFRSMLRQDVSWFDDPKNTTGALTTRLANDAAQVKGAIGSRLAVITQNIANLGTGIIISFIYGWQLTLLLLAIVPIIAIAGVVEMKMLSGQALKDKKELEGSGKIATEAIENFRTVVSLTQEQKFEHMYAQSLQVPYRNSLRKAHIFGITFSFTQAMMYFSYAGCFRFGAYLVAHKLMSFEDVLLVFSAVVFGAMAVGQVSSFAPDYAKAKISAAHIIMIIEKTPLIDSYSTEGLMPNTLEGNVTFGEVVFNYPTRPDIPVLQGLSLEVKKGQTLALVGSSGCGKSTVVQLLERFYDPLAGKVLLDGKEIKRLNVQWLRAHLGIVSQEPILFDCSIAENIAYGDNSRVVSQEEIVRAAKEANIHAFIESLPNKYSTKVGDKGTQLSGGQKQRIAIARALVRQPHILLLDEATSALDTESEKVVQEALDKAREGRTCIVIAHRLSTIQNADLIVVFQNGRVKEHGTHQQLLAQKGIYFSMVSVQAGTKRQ
T1 sequence (P21728 whole entry): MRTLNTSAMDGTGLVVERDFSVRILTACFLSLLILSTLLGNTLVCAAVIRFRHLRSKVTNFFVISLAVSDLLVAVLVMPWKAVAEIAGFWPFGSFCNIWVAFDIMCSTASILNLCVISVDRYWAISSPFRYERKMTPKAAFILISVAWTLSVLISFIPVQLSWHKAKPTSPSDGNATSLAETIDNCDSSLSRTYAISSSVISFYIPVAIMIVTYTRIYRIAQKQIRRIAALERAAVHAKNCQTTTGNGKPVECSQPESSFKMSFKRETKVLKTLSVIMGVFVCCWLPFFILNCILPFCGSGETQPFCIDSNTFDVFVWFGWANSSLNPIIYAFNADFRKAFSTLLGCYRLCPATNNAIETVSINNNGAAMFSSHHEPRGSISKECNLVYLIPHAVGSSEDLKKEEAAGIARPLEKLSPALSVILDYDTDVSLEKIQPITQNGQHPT
T14 sequence (P28223 whole entry): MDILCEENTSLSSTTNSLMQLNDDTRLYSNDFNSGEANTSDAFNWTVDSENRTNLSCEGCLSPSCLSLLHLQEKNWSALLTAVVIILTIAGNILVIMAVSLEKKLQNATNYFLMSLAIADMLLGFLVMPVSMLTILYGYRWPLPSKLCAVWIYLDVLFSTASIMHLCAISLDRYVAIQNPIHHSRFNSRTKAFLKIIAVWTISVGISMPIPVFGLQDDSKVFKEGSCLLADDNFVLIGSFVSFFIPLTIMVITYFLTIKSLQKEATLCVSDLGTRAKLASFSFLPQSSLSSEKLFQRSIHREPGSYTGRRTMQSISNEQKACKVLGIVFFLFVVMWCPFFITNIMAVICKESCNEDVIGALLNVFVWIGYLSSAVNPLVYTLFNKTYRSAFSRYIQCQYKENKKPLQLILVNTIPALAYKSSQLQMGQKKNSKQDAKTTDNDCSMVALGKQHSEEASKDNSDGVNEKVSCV
T11 sequence (P32245 whole entry): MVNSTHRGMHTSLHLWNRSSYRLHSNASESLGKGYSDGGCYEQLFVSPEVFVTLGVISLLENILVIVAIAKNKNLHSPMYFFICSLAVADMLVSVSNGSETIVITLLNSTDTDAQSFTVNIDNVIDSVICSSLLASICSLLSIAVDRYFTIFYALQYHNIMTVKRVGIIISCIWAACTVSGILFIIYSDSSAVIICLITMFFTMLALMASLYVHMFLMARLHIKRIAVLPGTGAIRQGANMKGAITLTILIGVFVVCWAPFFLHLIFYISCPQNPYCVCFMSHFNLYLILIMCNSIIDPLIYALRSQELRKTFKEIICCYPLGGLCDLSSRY
T8 sequence (P25103 whole entry): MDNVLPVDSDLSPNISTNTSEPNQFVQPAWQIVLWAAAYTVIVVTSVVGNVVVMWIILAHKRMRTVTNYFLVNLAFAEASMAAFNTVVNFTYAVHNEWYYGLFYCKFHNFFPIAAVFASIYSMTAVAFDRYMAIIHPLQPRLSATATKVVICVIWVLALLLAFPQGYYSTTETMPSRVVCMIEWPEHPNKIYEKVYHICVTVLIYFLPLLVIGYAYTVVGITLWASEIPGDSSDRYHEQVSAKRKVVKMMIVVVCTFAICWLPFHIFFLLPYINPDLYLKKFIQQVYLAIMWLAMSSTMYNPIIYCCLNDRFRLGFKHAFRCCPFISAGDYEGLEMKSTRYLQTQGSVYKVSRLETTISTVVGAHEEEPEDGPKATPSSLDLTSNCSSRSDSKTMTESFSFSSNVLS
T6 sequence (P41146 whole entry): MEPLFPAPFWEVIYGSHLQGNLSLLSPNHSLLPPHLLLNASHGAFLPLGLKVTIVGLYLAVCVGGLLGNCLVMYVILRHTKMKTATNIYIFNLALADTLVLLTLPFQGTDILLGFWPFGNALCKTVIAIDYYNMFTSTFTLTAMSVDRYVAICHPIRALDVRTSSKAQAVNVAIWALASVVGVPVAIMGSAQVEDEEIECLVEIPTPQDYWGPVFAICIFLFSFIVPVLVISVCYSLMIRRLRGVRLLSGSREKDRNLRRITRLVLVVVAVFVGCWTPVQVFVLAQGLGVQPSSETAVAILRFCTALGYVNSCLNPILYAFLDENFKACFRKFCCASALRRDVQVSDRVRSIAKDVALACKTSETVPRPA
T9 sequence (P16257 whole entry): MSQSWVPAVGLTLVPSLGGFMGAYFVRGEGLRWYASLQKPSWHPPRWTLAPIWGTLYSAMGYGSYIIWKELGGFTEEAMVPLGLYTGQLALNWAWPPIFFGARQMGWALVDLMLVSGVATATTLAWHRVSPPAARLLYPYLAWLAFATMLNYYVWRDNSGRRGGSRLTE
T13 sequence (P07550 whole entry): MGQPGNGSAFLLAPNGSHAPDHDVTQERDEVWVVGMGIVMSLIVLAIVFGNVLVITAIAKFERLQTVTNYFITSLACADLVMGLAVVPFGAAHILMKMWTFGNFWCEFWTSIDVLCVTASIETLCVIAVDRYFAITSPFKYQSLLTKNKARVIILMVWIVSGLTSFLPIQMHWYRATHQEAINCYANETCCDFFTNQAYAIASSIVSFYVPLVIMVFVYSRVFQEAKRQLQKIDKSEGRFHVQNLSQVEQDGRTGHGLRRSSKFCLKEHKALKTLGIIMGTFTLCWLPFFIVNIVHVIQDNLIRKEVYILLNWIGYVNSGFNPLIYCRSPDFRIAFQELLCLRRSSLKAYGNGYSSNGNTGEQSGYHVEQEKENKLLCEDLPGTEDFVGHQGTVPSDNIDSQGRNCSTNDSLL

SMILES: Cc1c(C(=O)NN2CCCCC2)nn(-c2ccc(Cl)cc2Cl)c1-c1ccc(I)cc1 [AM251]
- % inhibition D1 (h) (D1 (h)): 58%
- % inhibition sst4 (h) (sst4 (h)): 51%

SMILES: CCCCCCC(C)(C)c1cc(OC)c([C@@H]2C=C(CO)[C@@H]3C[C@H]2C3(C)C)c(OC)c1 [HU308]
- hypothermia, cannabimimetic effect (C57BL6/J mice [1]): did not produce detectable; also recorded: lacked appreciable pharmacological effects
- inhibition at 10 µM (NK3 (h)): 13%
- antinociception, cannabimimetic effect (C57BL6/J mice [2]): did not produce detectable; also recorded: lacked appreciable pharmacological effects
- inhibition at 10 µM (AT2 (h)): 42%
- inhibition at 10 µM (A2A (h)): 25%
- inhibition at 10 µM (NOP (ORL1) (h)): -5%
- inhibition at 10 µM (NTS1 (NT1) (h)): -23%
- inhibition at 10 µM (NK1 (h)): 29%
- inhibition at 10 µM (BZD (peripheral)): 12%
- % inhibition BB (BB): 3%
- solubility kinetic (physchem): < 0.75 µg/mL and < 1.8 µM
- inhibition at 10 µM (B2 (h)): -21%
- % inhibition Ca2+ channel (verapamil site) [3]: 3%
- inhibition at 10 µM (MC4 (h)): 1%
- GTPγS-cAMP bias factor (BF) (mCB2R [4]): 25.8
- GTPγS-cAMP ΔΔlogR (mCB2R [4]): 1.41 ± 0.27
- LogR GTPγS (mCB2R [4]): 6.77 ± 0.05
- LogR cAMP (mCB2R [4]): 8.07 ± 0.22
- LogR β-AR (mCB2R [4]): 6.22 ± 0.10
- β-AR-GTPγS bias factor (BF) (mCB2R [4]): 0.19
- β-AR-GTPγS ΔΔlogR (mCB2R [4]): -0.72 ± 0.13
- β-AR-cAMP bias factor (BF) (mCB2R [4]): 4.9
- β-AR-cAMP ΔΔlogR (mCB2R [4]): 0.69 ± 0.28
- ΔLogR GTPγS (mCB2R [4]; reference CP55940): -1.04 ± 0.07
- ΔLogR cAMP (mCB2R [4]; reference CP55940): -2.46 ± 0.26
- ΔLogR β-AR (mCB2R [4]; reference CP55940): -1.77 ± 0.12
- RE GTPγS (mCB2R [4]; relative effectiveness): 0.09
- RE cAMP (mCB2R [4]; relative effectiveness): 0.004
- RE β-AR (mCB2R [4]; relative effectiveness): 0.02
- inhibition at 10 µM (beta 2 (h)): -30%
- % inhibition PDGF (PDGF): -28%
- catalepsy, cannabimimetic effect (C57BL6/J mice [5]): did not produce detectable; also recorded: lacked appreciable pharmacological effects
- EC50 (mCB2R [6]): 148 nM
- Emax (mCB2R [6]; read-out: Emax ± SEM GTPγS mCB2R): 96 ± 3%

SMILES: Cc1ccc2c(c1)Cc1c(C(=O)NN3CCCCC3)nn(-c3ccc(Cl)cc3Cl)c1-2 [Gp-1a]
- % inhibition D1 (h) (D1 (h)): 63%
- P-gp (ER) human (human P-gp): 1.0

SMILES: CCCn1c(C)c(C(=O)c2cccc3ccccc23)c2ccccc21 [JWH015]
- % inhibition 5-HT2A (h) (5-HT2A (h)): 56%

SMILES: CCCCC/C=C\C/C=C\C/C=C\C/C=C\CCCC(=O)OC(CO)CO [2-AG, 2-arachidonoyl glycerol]
- solubility kinetic (physchem): < 0.5 µg/mL and < 1.3 µM
- microsomal CLint (in vitro): 12 µL/min/mg

SMILES: CN1CCCC[C@H]1Cn1cc(C(=O)c2cc([N+](=O)[O-])ccc2I)c2ccccc21 [(S)-AM1241]
- % inhibition 5-HT2A (h) (5-HT2A (h)): 67%
- Plasma protein binding mouse: 1.2 %free
- % inhibition sst4 (h) (sst4 (h)): 63%
- P-gp (ER) human (human P-gp): 2.7
